The experiment relates to L1210 cells (murine lymphocytic leukemia). Nature of the experiment: Cytotoxic activity in vitro on L1210 cells (50% inhibition of cellular growth) after 48 h continuous treatment. To be noted: Mus musculus, total cells counted with Coulter Counter, DMSO final concentration 0.5%, read-out: IC50 (concentration inhibiting 50% of cell growth). The experiment is classed as cell-based. The protocol: The IC50 was determined for each compound of formula (Ia), (Ib) and (Ic) from dose-response curves counting the total number of cells with a Coulter Counter (Kontron mod. ZM).
The tested compounds were dissolved in dimethylsulfoxide (DMSO) at a final concentration of 0.5%.

On to `CC[C@@]1(O)C(=O)OCc2c1cc1n(c2=O)Cc2cc3c(N)c(OS(=O)(=O)c4cccc5ccccc45)ccc3nc2-1` [Formula (Ia), 9-amino-10-(1-naphthylsulfonyloxy)-20(S)-camptothecin], for which the IC50 came out at 2.2 ± 0.3 ng/mL.

Consider `CC[C@@]1(O)C(=O)OCc2c1cc1n(c2=O)Cc2cc3c(N)c(OS(=O)(=O)c4ccccc4)ccc3nc2-1` [Formula (Ib), 9-amino-10-phenylsulfonyloxy-20(S)-camptothecin], for which the IC50 worked out at 6.8 ± 0.4 ng/mL.

`CCc1c2c(nc3ccc(OS(=O)(=O)c4ccc(C)cc4)c(N)c13)-c1cc3c(c(=O)n1C2)COC(=O)[C@]3(O)CC` [Formula (Ic), 7-ethyl-9-amino-10-(p-toluenesulfonyloxy)-20(S)-camptothecin]: the IC50 is 4.6 ± 0.1 ng/mL.

For the origin of these results see patent US5998426A, “9,10 disubstituted camptothecin derivatives with antitumor activity” (Pharmacia & Upjohn S.p.A., priority 1996, dated 1999).
